pIC50: −log10 of the molar value.
Test system: DGL
Experiment: DGL activity assay, UPLC-MS/MS, lung protein isolates
Type: biochemical, mouse
Settings: for DAG metabolism (normalized response): lung protein 50 μg
Description: Homogenized samples were centrifuged at 800 × g for 15 m at 4°C. The supernatant was collected in a 2.0 mL centrifuge tube and sonicated twice for 10 s. Samples underwent two sequential freeze thaw cycles using liquid N2. Samples were again centrifuged at 800 × g, 15 min, 4°C and the supernatant was collected. Total protein was then quantified via BCA assay and normalized between all samples. Protein isolations for each assay and each tissue were performed separately.
Substrate solutions were prepared by drying stock 19:2 DAG (20 nmol/reaction) under N2 steam (99.998% pure) and reconstituted in a solution of 50 mM Tris–HCl with 0.2% Triton x-100 (pH = 7.0). This solution was bath sonicated for 60 min at room temperature while protein samples were prepared. […] In addition, the ABHD6 inhibitor, WWL 70 (10 μM), was added to lung protein isolates for the 10-minute room temperature incubation to ensure the product of interest was not metabolized ([Tchantchou and Zhang, 2013]). Dose-inhibition experiments included addition of the DGL inhibitor, THL [albeit not selective for DGL, see [Hoover et al. (2008)]; [DiPatrizio et al. (2015)]]. […] The products of the reaction were extracted via lipid extraction methods (see section “Lipid Extraction for Enzyme Assays”) and quantified via UPLC-MS/MS (see section “Quantitation of MAG Biosynthetic Enzyme Activity Assay Products”).
Lipids were extracted using liquid-liquid extraction with chloroform (2.0 mL) followed by 0.8 mL 0.2-micron ultra-purified water. […] Products were detected and quantified via UPLC-MS/MS techniques (see section “UPLC-MS/MS Detection of Analytes”).
Analytes were eluted at a flow rate of 0.4 mL/min and gradient: 80% methanol 0.0–0.5 min, 80–100% methanol 0.5–2.5 min, 100% methanol 2.5–3.0 min, 100–80% methanol 3.0–3.1 min, and 80% methanol 3.1–4.5 min. […] Lipids were quantified using a stable isotope serial dilution method detecting H^+ or Na^+ adducts of the molecular ions [M + H/Na]^+ in multiple reactions monitoring (MRM) mode (variable amounts of product 19:2 MAG versus fixed amount of internal standard [^2H5]-2-AG). […]

- pIC50 (mouse lung protein isolates 50 μg, THL 3-1,000 nM, read-out: IC50, inhibition of DAG metabolism (DGL activity)): 7.13
Compound: CCCCCCCCCCC[C@@H](C[C@@H]1OC(=O)[C@H]1CCCCCC)OC(=O)[C@H](CC(C)C)NC=O [THL, tetrahydrolipstatin]
- DAG metabolism (normalized response) (highest inhibitor concentration of range (1,000 nM)): 10.19 ± 0.29%
- DAG metabolism (normalized response) (lowest inhibitor concentration of range (3 nM)): 90.26 ± 9.07%
